How the values were obtained:
Experiment in all cases: relative viability (nuclei count vs DMSO), 5 days (fraction); higher = more cells survive
[1] = compound: CN[C@@H]1C[C@H]2O[C@@](C)([C@@H]1OC)n1c3ccccc3c3c4c(c5c6ccccc6n2c5c31)C(=O)NC4 [Staurosporine] + CCNC(=O)c1noc(-c2cc(C(C)C)c(O)cc2O)c1-c1ccc(CN2CCOCC2)cc1 [Luminespib] (partner 0.01 µM)
In short: (§1)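 Each reported value is a median over duplicate plates. It expresses relative viability: treated-well nuclei count divided by vehicle-well nuclei count. Lung cancer cell lines in 1536-well plates were dosed by pin tool a day after seeding, alone with one drug or with a fixed anchor-drug dose plus five library-drug doses (not always all listed) in √10 steps, and nuclei were counted after 5 days.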

[2] = compound: O=c1[nH]cc(F)c(=O)[nH]1 [5-Fluorouracil] + CCNC(=O)c1noc(-c2cc(C(C)C)c(O)cc2O)c1-c1ccc(CN2CCOCC2)cc1 [Luminespib] (partner 0.01 µM)
In short: as §1

[3] = compound: CN[C@@H]1C[C@H]2O[C@@](C)([C@@H]1OC)n1c3ccccc3c3c4c(c5c6ccccc6n2c5c31)C(=O)NC4 [Staurosporine] + CC(C)C[C@H](NC(=O)[C@H](Cc1ccccc1)NC(=O)c1cnccn1)B(O)O [Bortezomib] (partner 0.002 µM)
In short: as §1

[4] = compound: CC1=C(CC(=O)O)c2cc(F)ccc2/C1=C\c1ccc([S+](C)[O-])cc1 [Sulindac] + Nc1nc2[nH]cc(CCc3ccc(C(=O)N[C@@H](CCC(=O)O)C(=O)O)cc3)c2c(=O)[nH]1 [Pemetrexed] (partner 0.2 µM)
In short: as §1

Cell Line	relative viability ([1]; first compound 0.005 µM)	relative viability ([1]; first compound 0.05 µM)	relative viability ([1]; first compound 0.1581 µM)	relative viability ([1]; first compound 0.5 µM)	relative viability ([2]; first compound 0.02 µM)	relative viability ([2]; first compound 0.2 µM)	relative viability ([2]; first compound 0.6325 µM)	relative viability ([2]; first compound 2 µM)	relative viability ([3]; first compound 0.005 µM)	relative viability ([3]; first compound 0.01581 µM)	relative viability ([3]; first compound 0.05 µM)	relative viability ([3]; first compound 0.1581 µM)	relative viability ([3]; first compound 0.5 µM)	relative viability ([4]; first compound 0.08 µM)	relative viability ([4]; first compound 0.253 µM)	relative viability ([4]; first compound 0.8 µM)	relative viability ([4]; first compound 2.53 µM)	relative viability ([4]; first compound 8 µM)	relative viability ([1]; first compound 0.01581 µM)
201T	1.03	0.693	0.349	0.334	1.03	0.809	0.352	0.301	1.13	1.1	1.04	0.911	0.747	0.329	0.325	0.339	0.323	0.366	
A-427	0.712	0.231	0.159	0.149	1.01	0.883	0.682	0.548	1.02	0.87	0.367	0.131	0.133	1.01	1	0.816	0.956	1.1	0.463
ABC-1	0.261	0.147	0.156	0.0847	0.577	0.531	0.533	0.465	0.264	0.232	0.247	0.187	0.185						0.274
BEN	0.397	0.383	0.152	0.129	0.18	0.399	0.543	0.371	0.698	0.528		0.253	0.163	0.816	0.757	0.698	0.706	0.998	0.256
CAL-12T	0.0969	0.0596	0.109	0.109	0.299	0.34	0.363	0.3	0.343	0.227	0.233	0.244	0.186	1.18	1.1	1.24	1.14	1.44	0.0675
COR-L23	0.262	0.083	0.0871	0.0485	0.86	0.691	0.512	0.168	0.69	0.282	0.272	0.104	0.0851	0.177	0.202	0.206	0.192	0.204	0.324
COR-L 105	0.364	0.192	0.253	0.161	0.638	0.909	0.685	0.439	0.351	0.257	0.203	0.22	0.231	1.31	1.14	0.979	1.21	1.2	0.277
Calu-6									0.844	0.531	0.313	0.14	0.0926						
ChaGo-K-1	0.7	0.374	0.185	0.176	0.6	0.513	0.406	0.358	0.992		0.86	0.243	0.222	0.269	0.247	0.302	0.262	0.275	0.344
EBC-1									0.308	0.234	0.185	0.2	0.14						
EKVX	0.65	0.277	0.176	0.107	0.647		0.166	0.152	0.351	0.234	0.262		0.125	0.471	0.421	0.323	0.423	0.433	0.385
EMC-BAC-2	0.844	0.24	0.216	0.211	1.12	1.23	1.22	1.16	0.564	0.564	0.224	0.178	0.137	0.429	0.441	0.408	0.451	0.466	0.33
EPLC-272H	0.206	0.0679	0.0575	0.075	0.313	0.296	0.208	0.198	1.01	0.195	0.447	0.181	0.126	0.274	0.326	0.465	0.278	0.347	0.0928
H3255	0.771	0.44	0.266	0.212	0.945	1	0.83	0.741	0.357	0.228	0.337	0.162	0.136	0.592	0.573	0.549	0.567	0.568	0.513
HARA	0.697	0.297	0.0959	0.0973	0.964	0.739	0.705	0.509	0.996	0.351	0.233	0.115	0.179	0.237	0.257	0.242	0.239	0.288	
HCC-15	0.303	0.219	0.169	0.165	0.293	0.294	0.292	0.225	1.05		0.842	0.376	0.251	0.213	0.223	0.209	0.22	0.235	

From the supplement of paper PMC10307832
